Where two headings read alike, the source gives them in different places.
Assays:
Assay type in all cases: cell-based
[1] = system: human breast cancer cells MDA-MB-468; assay: Cell viability test (Resazurin), MDA-MB-468 cells
Procedure: (§1) Cell viability was determined with Resazurin (at a final concentration of 25 μg/mL).

[2] = system: human liver cancer cells Mahlavu; assay: Cell viability test (Resazurin), Mahlavu cells
Procedure: as §1

[3] = system: human Glioblastoma cells U87-MG; assay: Cell viability test (Resazurin), U87-MG cells; parameters: evaluation of ability to inhibit cell growth activity (IC50): scale not given here
Procedure: as §1

[4] = system: human colorectal cancer cells SW-480; assay: Cell viability test (Resazurin), SW480 cells; parameters: evaluation of ability to inhibit cell growth activity (IC50): scale not given here
Procedure: as §1

[5] = system: human breast cancer cells MDA-MB-231; assay: Cell viability test (Resazurin), MDA-MB-231 cells; parameters: evaluation of ability to inhibit cell growth activity (IC50): scale not given here
Procedure: as §1

[6] = system: African green monkey kidney cells Vero; assay: Cell viability test (Resazurin), Vero cells; conditions: for evaluation of ability to inhibit cell growth activity (IC50): grade of the IC50 of Table 2
Procedure: as §1

[7] = system: human leukemia cells U937; assay: Cell viability test (Resazurin), U937 cells
Procedure: as §1

[8] = system: human lung cancer cells A549; assay: Cell viability test (Resazurin), A549 cells; parameters: evaluation of ability to inhibit cell growth activity (IC50): scale not given here
Procedure: as §1

[9] = Homo sapiens, MDA-MB-468, MDA-MB-468 cells, grade of the IC50 of Table 2, read-out: evaluation of ability to inhibit cell growth activity (IC50)
[10] = MDA-MB-468 cells, 48 hours, 0.1% FCS, Resazurin, read-out: inhibitory concentrations of cell growth activity IC50
[11] = 48 hours, 0.1% FCS, Resazurin, read-out: inhibitory concentrations of cell growth activity IC50
[12] = grade of the IC50 of Table 2, read-out: evaluation of ability to inhibit cell growth activity (IC50)
[13] = Homo sapiens, U-87 MG, grade of the IC50 of Table 2, read-out: evaluation of ability to inhibit cell growth activity (IC50)
[14] = Homo sapiens, SW480, SW480 cells, grade of the IC50 of Table 2, read-out: evaluation of ability to inhibit cell growth activity (IC50)
[15] = SW480 cells, 48 hours, 0.1% FCS, Resazurin, read-out: inhibitory concentrations of cell growth activity IC50
[16] = Homo sapiens, MDA-MB-231, MDA-MB-231 cells, grade of the IC50 of Table 2, read-out: evaluation of ability to inhibit cell growth activity (IC50)
[17] = MDA-MB-231 cells, 48 hours, 0.1% FCS, Resazurin, read-out: inhibitory concentrations of cell growth activity IC50
[18] = U937 cells, 48 hours, 0.1% FCS, Resazurin, read-out: inhibitory concentrations of cell growth activity IC50
[19] = U937 cells, grade of the IC50 of Table 2, read-out: evaluation of ability to inhibit cell growth activity (IC50)
[20] = A549 cells, 48 hours, 0.1% FCS, Resazurin, read-out: inhibitory concentrations of cell growth activity IC50
[21] = A549 cells, grade of the IC50 of Table 2, read-out: evaluation of ability to inhibit cell growth activity (IC50)
[22] = MDA-MB-468 cells, grade of the IC50 of Table 2, read-out: evaluation of ability to inhibit cell growth activity (IC50)
[23] = Homo sapiens, Mahlavu, 48 h, 0.1% FCS, Resazurin, read-out: inhibitory concentrations of cell growth activity IC50
[24] = Homo sapiens, Mahlavu, grade of the IC50 of Table 2, read-out: evaluation of ability to inhibit cell growth activity (IC50)
[25] = SW480 cells, grade of the IC50 of Table 2, read-out: evaluation of ability to inhibit cell growth activity (IC50)
[26] = Homo sapiens, MDA-MB-231, 48 h, MDA-MB-231 cells, 48 hours, 0.1% FCS, Resazurin, read-out: inhibitory concentrations of cell growth activity IC50
[27] = MDA-MB-231 cells, grade of the IC50 of Table 2, read-out: evaluation of ability to inhibit cell growth activity (IC50)
[28] = Chlorocebus sabaeus, Vero, 48 h, 0.1% FCS, Resazurin, read-out: inhibitory concentrations of cell growth activity IC50
[29] = Homo sapiens, U-937, 48 h, U937 cells, 48 hours, 0.1% FCS, Resazurin, read-out: inhibitory concentrations of cell growth activity IC50
[30] = Homo sapiens, U-937, U937 cells, grade of the IC50 of Table 2, read-out: evaluation of ability to inhibit cell growth activity (IC50)
[31] = Homo sapiens, A549, 48 h, A549 cells, 48 hours, 0.1% FCS, Resazurin, read-out: inhibitory concentrations of cell growth activity IC50
[32] = Homo sapiens, A549, A549 cells, grade of the IC50 of Table 2, read-out: evaluation of ability to inhibit cell growth activity (IC50)

## CO[C@H]1O[C@]23C=C[C@@H]4[C@@]1(CC[C@]1(C)[C@@H]([C@H](C)C/C=C/C(C)(C)O)CC[C@@]41C)[C@@H]2CC[C@H](O)C3(C)C [Compound 20]
[1]; [9]
  IC50: < 8 µM
[1]; [10]
  IC50: 6.9 µM
[2]; [11]
  IC50: 19.7 µM
[2]; [12]
  IC50: 16 to 64 µM
[3]; [11]
  IC50: 12.2 µM
[3]; [13]
  IC50: 8 to 16 µM
[3]; grade of the IC50 of Table 2
  evaluation of ability to inhibit cell growth activity (IC50): ◯
[4]; [14]
  IC50: 8 to 16 µM
[4]; [15]
  IC50: 12.6 µM
[4]; SW480 cells, grade of the IC50 of Table 2
  evaluation of ability to inhibit cell growth activity (IC50): ◯
[5]; [16]
  IC50: 8 to 16 µM
[5]; [17]
  IC50: 10.4 µM
[5]; MDA-MB-231 cells, grade of the IC50 of Table 2
  evaluation of ability to inhibit cell growth activity (IC50): ◯
[6]; [11]
  IC50: 12.5 µM
[6]
  evaluation of ability to inhibit cell growth activity (IC50): ◯
[7]; [18]
  IC50: 4.33 µM
[7]; [19]
  IC50: < 8 µM
[8]; [20]
  IC50: 20.1 µM
[8]; [21]
  IC50: 16 to 64 µM

## COC1O[C@]23C=C[C@@H]4[C@@]1(CC[C@]1(C)[C@@H]([C@H](C)C[C@@H](O)C=C(C)C)CC[C@@]41C)[C@@H]2CC[C@H](O)C3(C)C (stereo partly drawn) [Compound 21]
[1]; [10]
  IC50: 35.4 µM
[1]; [22]
  IC50: 16 to 64 µM
[2]; [23]
  IC50: > 256 µM
[2]; [24]
  IC50: > 256 µM
[3]; [11]
  IC50: 83.5 µM
[3]; [12]
  IC50: 64 to 256 µM
[4]; [15]
  IC50: 118 µM
[4]; [25]
  IC50: 64 to 256 µM
[5]; [26]
  IC50: 130 µM
[5]; [27]
  IC50: 64 to 256 µM
[6]; [28]
  IC50: > 256 µM
[6]; Chlorocebus sabaeus, Vero, grade of the IC50 of Table 2, read-out: evaluation of ability to inhibit cell growth activity (IC50)
  IC50: > 256 µM
[7]; [29]
  IC50: 6.19 µM
[7]; [30]
  IC50: < 8 µM
[8]; [31]
  IC50: > 256 µM
[8]; [32]
  IC50: > 256 µM

## CO[C@@H]1O[C@]23C=C[C@@H]4[C@@]1(CC[C@]1(C)[C@@H]([C@H](C)C[C@@H](O)C=C(C)C)CC[C@@]41C)[C@@H]2CC[C@H](O)C3(C)C [Compound 22]
[1]; [10]
  IC50: > 256 µM
[1]; [22]
  IC50: > 256 µM
[2]; [11]
  IC50: > 256 µM
[2]; [12]
  IC50: > 256 µM
[3]; [11]
  IC50: > 256 µM
[3]; [12]
  IC50: > 256 µM
[4]; [15]
  IC50: > 256 µM
[4]; [25]
  IC50: > 256 µM
[5]; [17]
  IC50: > 256 µM
[5]; [27]
  IC50: > 256 µM
[6]; [11]
  IC50: > 256 µM
[6]; [12]
  IC50: > 256 µM
[7]; [18]
  IC50: 6.17 µM
[7]; [19]
  IC50: < 8 µM
[8]; [20]
  IC50: > 256 µM
[8]; [21]
  IC50: > 256 µM

## CO[C@H]1C=C2[C@@H](CC[C@H](O)C2(C)C)[C@]2(C=O)CC[C@]3(C)[C@@H]([C@H](C)C/C=C/C(C)(C)OC)CC[C@@]3(C)[C@H]12 [Compound 23]
[1]; Homo sapiens, MDA-MB-468, 48 h, MDA-MB-468 cells, 48 hours, 0.1% FCS, Resazurin, read-out: inhibitory concentrations of cell growth activity IC50
  IC50: 7.55 µM
[1]; [9]
  IC50: < 8 µM
[2]; [23]
  IC50: 15.4 µM
[2]; [24]
  IC50: 8 to 16 µM
[2]; grade of the IC50 of Table 2
  evaluation of ability to inhibit cell growth activity (IC50): ◯
[3]; Homo sapiens, U-87 MG, 48 h, 0.1% FCS, Resazurin, read-out: inhibitory concentrations of cell growth activity IC50
  IC50: 7.65 µM
[3]; [13]
  IC50: < 8 µM
[4]; Homo sapiens, SW480, 48 h, SW480 cells, 48 hours, 0.1% FCS, Resazurin, read-out: inhibitory concentrations of cell growth activity IC50
  IC50: 7.56 µM
[4]; [14]
  IC50: < 8 µM
[5]; [26]
  IC50: 7.91 µM
[5]; [16]
  IC50: < 8 µM
[6]; [28]
  IC50: 15.9 µM
[6]
  evaluation of ability to inhibit cell growth activity (IC50): ◯
[7]; [29]
  IC50: 5.75 µM
[7]; [30]
  IC50: < 8 µM
[8]; A549 cells, grade of the IC50 of Table 2
  evaluation of ability to inhibit cell growth activity (IC50): ◯
[8]; [31]
  IC50: 15.3 µM
[8]; [32]
  IC50: 8 to 16 µM
